Data published in patent US8455649B2, “Insecticidal substituted azinyl derivatives” (Dow AgroSciences, LLC, priority 2007, dated 2013).
Like-named read-outs stand apart in the source and are kept apart here.

Assays:
[1] = tested on: Corn Earworm (Helicoverpa zea); test: Insecticidal diet-surface test for corn earworm; assay type: in vivo; details: 120 h, read-out: HELIZE AVG % Mortality (50 μg/cm^2)
Protocol: (§1) The compounds identified in Table 1 were tested against beet armyworm and corn earworm as follows:
(§2) Insecticidal Test for Corn Earworm (Helicoverpa zea) and Beet Armyworm (Spodoptera exigua).
(§3) To prepare test solution, the test compound was formulated at 2000 ppm solution as 4 mg/2 mL of 9 acetone:1 tap water. 50 μL of the 2000 ppm (equivalent to 50 μg/cm^2 dose on diet surface area) test solution was pipetted upon the surface of 1 mL of lepidopteran diet (Southland Multi-Species Lepidopteran Diet) contained in each of eight wells per insect species (one well=1 replication). A second-instar corn earworm and beet armyworm was placed upon the treated diet in each well once the solvent had air-dried. Trays containing the treated diet and larvae were covered and then held in a growth chamber at 25° C., 50-55% RH, and 16 hr light:8 hr dark for 5 days. Observation were conducted 5 days after treatment and infestation. The number of dead insects of 8 per species per treatment was then determined and the results are given in Table 2 as a percent control at a dose of […].

[2] = tested on: Beet Armyworm (Spodoptera exigua); test: Insecticidal diet-surface test for beet armyworm; assay type: in vivo; details: 120 h, read-out: LAPHEG AVG % Mortality (50 μg/cm^2)
Protocol: as §1, §2, §3

[3] = second-instar larvae on treated diet, 50 μg/cm^2 on diet surface, 5 days after treatment, 8 insects per treatment

Structure (SMILES) | mortality at 50 µg/cm2 [1, 3] [%] | mortality at 50 µg/cm2 [2, 3] [%] | mortality at 50 µg/cm2 [1] [%] | mortality at 50 µg/cm2 [2] [%]
CN(C(=O)Nc1nc(OCC(F)(F)F)cc(OCC(F)(F)F)n1)c1ccc(C(F)(F)F)c(F)c1 [Compound 154] | 100 | 100 |  | 
CCN(C(=O)Nc1nc(OCC(F)(F)F)cc(OCC(F)(F)F)n1)c1ccc(Br)cc1 [Compound 40] | 100 | 100 |  | 
CN(C(=S)Nc1nc(OCC(F)(F)F)cc(OCC(F)(F)F)n1)c1ccc(C(F)(F)F)cc1 [Compound 131, N′-[4,6-bis(2,2,2-trifluoroethoxy)pyrimidin-2-yl]-N-methyl-N-[4-(trifluoromethyl)phenyl]thiourea] | 100 | 100 |  | 
O=C(Nc1ccc(C(F)(F)F)cc1)Nc1nc(OCC(F)(F)F)nc(OCC(F)(F)F)n1 [Compound 116] | 0 | 100 |  | 
CN(C(=O)Nc1nc(OCC(F)(F)F)nc(OCC(F)(F)F)n1)c1ccc(Br)cc1 [Compound 119] | 88 | 100 |  | 
N#Cc1ccc(NC(=O)Nc2nc(OCC(F)(F)F)cc(OCC(F)(F)F)n2)nc1 [Compound 127] | 100 | 0 |  | 
O=C(Nc1ccc(C(F)(F)F)cc1)Nc1nc(OCC(F)(F)C(F)(F)F)cc(OCC(F)(F)C(F)(F)F)n1 [Compound 174] | 100 | 0 |  | 
O=C(Nc1nc(OCC(F)(F)F)cc(OCC(F)(F)F)n1)N(O)c1ccc(Cl)cc1 [Compound 64, N′-[4,6-bis(2,2,2-trifluoroethoxy)pyrimidin-2-yl]-N-(4chlorophenyl)-N-hydroxyurea] | 100 | 100 |  | 
O=C(Nc1nc(OCC(F)(F)F)cc(OCC(F)(F)F)n1)Nc1ccccc1OC(F)(F)F [Compound 134] | 100 | 100 |  | 
O=C(Nc1ccc(I)cc1)Nc1nc(OCC(F)(F)F)cc(OCC(F)(F)F)n1 [Compound 54] | 100 | 100 |  | 
O=C(Nc1ccc(OC(F)=C(Cl)Cl)cc1)Nc1nc(OCC(F)(F)F)cc(OCC(F)(F)F)n1 [Compound 16] | 0 | 100 |  | 
O=C(Nc1ccc(C(F)(F)F)cc1)Nc1nc(OCC(F)(F)F)cc(SCC(F)(F)F)n1 [Compound 6] | 63 | 0 |  | 
O=C(Nc1nc(OCC(F)(F)F)cc(OCC(F)(F)F)n1)N(CCF)c1ccc(OC(F)(F)F)cc1 [Compound 95] | 100 | 100 |  | 
CCOCN(C(=O)Nc1nc(OCC(F)(F)F)cc(OCC(F)(F)F)n1)c1ccc(Br)cc1 [Compound 74] | 100 | 100 |  | 
CN(C(=S)Nc1nc(OCC(F)(F)F)cc(OCC(F)(F)F)n1)c1ccc(Br)cc1 [Compound 132] | 100 | 100 |  | 
O=C(NNc1ccc(Cl)cc1)Nc1nc(OCC(F)(F)F)cc(OCC(F)(F)F)n1 [Compound 9] | 88 | 100 |  | 
CN(C(=O)Nc1nc(OCC(F)(F)F)cc(OCC(F)(F)F)n1)c1ccc([N+](=O)[O-])cc1 [Compound 79] | 100 | 100 |  | 
CCOCN(C(=O)N(COCc1ccccc1)c1nc(OCC(F)(F)F)cc(OCC(F)(F)F)n1)c1ccc(C(F)(F)F)cc1 [Compound 33, N-Benzyloxymethyl-N-[4,6-bis(2,2,2-trifluoroethoxy)pyrimidin-2-yl]-N′-ethoxymethyl-N′-[4-(trifluoromethyl)phenyl]urea] | 100 | 100 |  | 
CN(C(=O)Nc1nc(OCC(F)(F)F)cc(OCC(F)(F)F)n1)c1ccc(Cl)nc1 [Compound 48] | 100 | 100 |  | 
CCOC(=O)N(C(=O)N(COCc1ccccc1)c1nc(OCC(F)(F)F)cc(OCC(F)(F)F)n1)c1ccc(C(F)(F)F)cc1 [Compound 36] |  | 100 | 100 | 
CN(C(=O)Nc1cc(C(F)(F)F)cc(OCC(F)(F)F)n1)c1ccc(C(F)(F)F)cc1 [Compound 162] | 100 | 100 |  | 
COCN(C(=O)Nc1nc(OCC(F)(F)F)cc(OCC(F)(F)F)n1)c1ccc(C(F)(F)F)nc1 [Compound 91] | 100 | 100 |  | 
CN(C(=O)Nc1cc(OCC(F)(F)F)nc(OCC(F)(F)F)n1)c1ccc(Cl)nc1 [Compound 110] | 0 | 100 |  | 
CCN(C(=O)Nc1nc(OCC(F)(F)F)cc(OCC(F)(F)F)n1)c1ccc(Br)nc1 [Compound 46] | 100 | 100 |  | 
CN(C(=O)Nc1ccc(OC(F)(F)F)cc1)c1nc(OCC(F)(F)F)cc(OCC(F)(F)F)n1 [Compound 10] | 0 | 100 |  | 

Structure (SMILES) | mortality at 50 µg/cm2 [1, 3] [%] | mortality at 50 µg/cm2 [2, 3] [%] | mortality at 50 µg/cm2 [1] [%] | mortality at 50 µg/cm2 [2] [%]
O=C(Nc1ccc(OCC(F)F)cc1)Nc1nc(OCC(F)(F)F)cc(OCC(F)(F)F)n1 [Compound 15] | 50 | 75 |  | 
O=C(Nc1ccc(C(F)(F)F)nc1)N(COCc1ccccc1)c1nc(OCC(F)(F)F)cc(OCC(F)(F)F)n1 [Compound 87] | 100 | 100 |  | 
Cc1cc(Br)ccc1N(C)C(=O)Nc1nc(OCC(F)(F)F)cc(OCC(F)(F)F)n1 [Compound 158] | 100 | 100 |  | 
CCOCN(C(=O)N(COCc1ccccc1)c1nc(OCC(F)(F)F)cc(OCC(F)(F)F)n1)c1ccc(Br)cc1 [Compound 67] | 100 | 100 |  | 
CC(C)OCN(C(=O)Nc1nc(OCC(F)(F)F)cc(OCC(F)(F)F)n1)c1ccc(C(F)(F)F)cc1 [Compound 53] | 100 | 100 |  | 
O=C(Nc1ccc(Cl)c(Cl)c1)Nc1nc(OCC(F)(F)F)cc(OCC(F)(F)F)n1 [Compound 5] | 50 | 25 |  | 
CN(C(=O)Nc1nc(OCC(F)(F)F)cc(OCC(F)(F)F)n1)c1ccc(Br)c(C(F)(F)F)c1 [Compound 181] | 100 | 100 |  | 
CN(C(=O)Nc1nc(OCC(F)(F)F)cc(OCC(F)(F)F)n1)c1c(F)cccc1F [Compound 159] | 0 | 100 |  | 
O=C(Nc1ccc(C(F)(F)F)cc1)Nc1nc(NCC(F)(F)F)cc(OCC(F)(F)F)n1 [Compound 99] | 100 | 100 |  | 
CN(C(=O)Nc1nc(OCC(F)(F)F)nc(OCC(F)(F)F)n1)c1ccc(OC(F)(F)C(F)F)cc1 [Compound 120] | 100 | 100 |  | 
O=C(Nc1ccc(OC(F)(F)F)cc1)Nc1cc(OCC(F)(F)F)nc(OCC(F)(F)F)n1 [Compound 115] | 75 | 38 |  | 
CC(C)(C)COCN(C(=O)N(COCc1ccccc1)c1nc(OCC(F)(F)F)cc(OCC(F)(F)F)n1)c1ccc(C(F)(F)F)cc1 [Compound 51] | 0 | 100 |  | 
CN(C(=O)Nc1nc(OCC(F)(F)F)cc(OCC(F)(F)F)n1)c1ccc(I)cn1 [Compound 126] | 100 | 100 |  | 
COCN(C(=O)N(COCc1ccccc1)c1nc(OCC(F)(F)F)cc(OCC(F)(F)F)n1)c1ccc(C(F)(F)F)cc1 [Compound 37] | 100 | 100 |  | 
CCOCN(C(=O)Nc1nc(OCC(F)(F)F)cc(OCC(F)(F)F)n1)c1ccc(OC(F)(F)F)cc1 [Compound 44] | 100 | 100 |  | 
CSc1ccc(NC(=O)Nc2nc(OCC(F)(F)F)cc(OCC(F)(F)F)n2)cc1 [Compound 57] | 100 | 0 |  | 
N#Cc1ccc(NC(=O)Nc2nc(OCC(F)(F)F)cc(OCC(F)(F)F)n2)cc1Cl [Compound 55] |  |  | 100 | 0
CCOCN(C(=O)Nc1nc(OCC(F)(F)F)cc(OCC(F)(F)F)n1)c1ccc(C(F)(F)F)nc1 [Compound 90] | 100 | 100 |  | 
O=C(Nc1ccc(C(F)(F)F)cc1)Nc1nc(Cl)cc(OCC(F)(F)F)n1 [Compound 97] | 100 | 100 |  | 
CN(C(=O)Nc1nc(OCC(F)(F)F)c(Cl)c(OCC(F)(F)F)n1)c1ccc(OC(F)(F)F)cc1 [Compound 138] | 100 | 100 |  | 
FC(F)(F)COc1cc(OCC(F)(F)F)nc(NC(=S)Nc2ccc(Br)cc2)n1 [Compound 129] | 100 | 100 |  | 
CN(C(=O)Nc1nc(OCC(F)(F)F)cc(OCC(F)(F)F)n1)c1ccc(OC(F)(F)F)cc1 [Compound 7, N′-[4,6-bis(2,2,2-trifluoroethoxy)pyrimidin-2-yl]-N-methyl-N-[4-(trifluoromethoxy)phenyl]urea] | 100 | 100 |  | 
CN(C(=O)Nc1nc(OCC(F)(F)F)cc(OCC(F)(F)F)n1)c1ccc(Br)cc1C(F)(F)F [Compound 155] | 100 | 50 |  | 
O=C(Nc1ccc(Br)cc1)Nc1cc(C(F)(F)F)cc(OCC(F)(F)F)n1 [Compound 166] | 100 | 100 |  | 
